Reference: patent US6800621B2, “Imidazo[4,5-b]-pyridiniummethyl-containing cephem compounds having broad antibacterial spectrum activity” (Shionogi & Co., Ltd., priority 1998, dated 2004)
≈ marks a conversion by molar mass, not a printed value. Where a name gives a salt, the structure may show the parent alone. Read-outs that look alike come from different tables or passages of the source.

Assays:
E.cloacae ATCC 13047 = assay: MIC by agar dilution method; assay type: cell-based; settings: E.cloacae ATCC 13047, G(−)
Protocol: (§1) The minimal inhibitory concentration (MIC) of compound (I) against various bacteria was determined by an agar dilution method. As reference compounds, used were cefozopran hydrochloride (CZOP) described in JP(A) Kokai H03-47189, cefoselis sulfate (CFSL) described in JP(A) Kokai H07-196665 and WO97/41128, compound A of which 3-side chain is a type of imidazo[4,5-c]pyridiniummethyl, and vancomycin. In the table, “Ex5-3”, for example, represents the end compound of the present invention obtained in Example 5-3, and the others are similarly expressed.

E.cloacae SR4321 = assay: MIC by agar dilution method; assay type: cell-based; settings: E.cloacae SR4321, G(−)
Protocol: as §1

E.coli NIH JC-2 = assay: MIC by agar dilution method; assay type: cell-based; settings: E.coli NIH JC-2, G(−)
Protocol: as §1

E.coli SR5028 = assay: MIC by agar dilution method; assay type: cell-based; settings: E.coli SR5028, G(−)
Protocol: as §1

E.faecalis SR1004 = assay: MIC by agar dilution method; assay type: cell-based; settings: E.faecalis SR1004, G(+)
Protocol: as §1

P.aeruginosa SR24 = assay: MIC by agar dilution method; assay type: cell-based; settings: P.aeruginosa SR24, G(−)
Protocol: as §1

P.aeruginosae SR5393 = assay: MIC by agar dilution method; assay type: cell-based; settings: P.aeruginosae SR5393, G(−)
Protocol: as §1

P.vulgaris CN-329 = assay: MIC by agar dilution method; assay type: cell-based; settings: P.vulgaris CN-329, G(−)
Protocol: as §1

S.aureus SMITH = assay: MIC by agar dilution method; assay type: cell-based
Protocol: as §1

S.aureus SR14 = assay: MIC by agar dilution method; assay type: cell-based
Protocol: as §1

S.aureus SR3626 = assay: MIC by agar dilution method; assay type: cell-based
Protocol: as §1

S.aureus SR3637 [1] = assay: MIC by agar dilution method; assay type: cell-based
Protocol: as §1

S.marvescens ATCC 13880 = assay: MIC by agar dilution method; assay type: cell-based
Protocol: as §1

S.mitis SR16376 = assay: MIC by agar dilution method; assay type: cell-based
Protocol: as §1

S.pneumoniae SR16675 = assay: MIC by agar dilution method; assay type: cell-based
Protocol: as §1

S.pneumoniae Type 1 = assay: MIC by agar dilution method; assay type: cell-based
Protocol: as §1

S.aureus SR3637 [2] = assay: ED50 mouse/S.aureus SR3637; assay type: in vivo
[3] = Enterobacter cloacae, ATCC13047, read-out: MIC
[4] = Enterobacter cloacae, read-out: MIC
[5] = Escherichia coli, NIHJC2, read-out: MIC
[6] = Escherichia coli, read-out: MIC
[7] = Enterococcus faecalis, read-out: MIC
[8] = Pseudomonas aeruginosa, read-out: MIC
[9] = Proteus vulgaris, CN329, read-out: MIC
[10] = Staphylococcus aureus, S.aureus SMITH, G(+), read-out: MIC
[11] = Staphylococcus aureus, S.aureus SR14, G(+), read-out: MIC
[12] = Staphylococcus aureus, S.aureus SR3626 (MRSA), G(+), read-out: MIC
[13] = Staphylococcus aureus, S.aureus SR3637 (MRSA), G(+), read-out: MIC
[14] = Streptococcus mitis, S.mitis SR16376, G(+), read-out: MIC
[15] = Streptococcus pneumoniae, S.pneumoniae SR16675, G(+), read-out: MIC
[16] = Streptococcus pneumoniae, TYPE1, S.pneumoniae Type 1, G(+), read-out: MIC

Structure (SMILES) | MIC (E.cloacae ATCC 13047) [mg/L] | MIC (E.cloacae SR4321) [mg/L] | MIC (E.coli NIH JC-2) [mg/L] | MIC (E.coli SR5028) [mg/L] | MIC (E.faecalis SR1004) [mg/L] | MIC (P.aeruginosa SR24) [mg/L] | MIC (P.aeruginosae SR5393) [mg/L] | MIC (P.vulgaris CN-329) [mg/L] | MIC (S.aureus SMITH; S.aureus SMITH, G(+)) [mg/L] | MIC (S.aureus SR14; S.aureus SR14, G(+)) [mg/L] | MIC (S.aureus SR3626; S.aureus SR3626 (MRSA), G(+)) [mg/L] | MIC (S.aureus SR3637 [1]; S.aureus SR3637 (MRSA), G(+)) [mg/L] | MIC (S.marvescens ATCC 13880; S.marvescens ATCC 13880, G(−)) [mg/L] | MIC (S.mitis SR16376; S.mitis SR16376, G(+)) [mg/L] | MIC (S.pneumoniae SR16675; S.pneumoniae SR16675, G(+)) [mg/L] | MIC (S.pneumoniae Type 1; S.pneumoniae Type 1, G(+)) [mg/L] | ED50 (S.aureus SR3637 [2]) [mg/kg] | other results
CCO/N=C(\C(=O)NC1C(=O)N2C(C(=O)[O-])=C(C[n+]3ccc4c(c3)ncn4CCCN)CSC12)c1nsc(N)n1 (stereo not shown) [A, reference compound] | – | – | – | – | – | – | – | – | – | – | – | – | – | – | – | – | – | MIC (E.cloacae ATCC 13047; [3]): 0.48 mg/L (≈ 0.818 µM); MIC (E.cloacae SR4321; [4]): 12.5 mg/L (≈ 21.3 µM); MIC (E.coli NIH JC-2; [5]): 0.05 mg/L (≈ 0.0852 µM); MIC (E.coli SR5028; [6]): 1.56 mg/L (≈ 2.66 µM); MIC (E.faecalis SR1004; [7]): 50 mg/L (≈ 85.2 µM); MIC (P.aeruginosa SR24; [8]): 0.78 mg/L (≈ 1.33 µM); MIC (P.aeruginosae SR5393; read-out: MIC): 3.13 mg/L (≈ 5.34 µM); MIC (P.vulgaris CN-329; [9]): 0.1 mg/L (≈ 0.17 µM); MIC (S.aureus SMITH; [10]): 0.78 mg/L (≈ 1.33 µM); MIC (S.aureus SR14; [11]): 3.13 mg/L (≈ 5.34 µM); MIC (S.aureus SR3626; [12]): 25 mg/L (≈ 42.6 µM); MIC (S.aureus SR3637 [1]; [13]): 25 mg/L (≈ 42.6 µM); MIC (S.marvescens ATCC 13880): 0.1 mg/L (≈ 0.17 µM); MIC (S.mitis SR16376; [14]): 0.1 mg/L (≈ 0.17 µM); MIC (S.pneumoniae SR16675; [15]): 0.39 mg/L (≈ 0.665 µM); MIC (S.pneumoniae Type 1; [16]): 0.0125 mg/L (≈ 0.0213 µM)
CO/N=C(\C(=O)N[C@@H]1C(=O)N2C(C(=O)[O-])=C(Cn3cc[n+]4ncccc34)CS[C@H]12)c1nsc(N)n1 [CZOP, cefozopran hydrochloride, reference compound] | – | – | – | – | – | – | – | – | – | – | – | – | – | – | – | – | – | MIC (E.cloacae ATCC 13047; [3]): 0.2 mg/L; MIC (E.cloacae SR4321; [4]): 6.25 mg/L; MIC (E.coli NIH JC-2; [5]): 0.05 mg/L; MIC (E.coli SR5028; [6]): 0.78 mg/L; MIC (E.faecalis SR1004; [7]): 25 mg/L; MIC (P.aeruginosa SR24; [8]): 0.78 mg/L; MIC (P.aeruginosae SR5393; read-out: MIC): 1.56 mg/L; MIC (P.vulgaris CN-329; [9]): 0.2 mg/L; MIC (S.aureus SMITH; [10]): 0.78 mg/L; MIC (S.aureus SR14; [11]): 0.78 mg/L; MIC (S.aureus SR3626; [12]): 50 mg/L; MIC (S.aureus SR3637 [1]; [13]): 50 mg/L; MIC (S.marvescens ATCC 13880; S.marvescens ATCC 13880, G(−), read-out: MIC): 0.1 mg/L; MIC (S.mitis SR16376; [14]): 0.2 mg/L; MIC (S.pneumoniae SR16675; [15]): 0.78 mg/L; MIC (S.pneumoniae Type 1; [16]): 0.05 mg/L
CCON=C(C(=O)NC1C(=O)N2C(C(=O)[O-])=C(C[n+]3cccc4c3ncn4C3CCNC3)CSC12)c1nsc(N)n1.Cl (stereo not shown) [Ex4-1] | 0.78 | 25 | 0.2 | 3.13 | 50 | 0.78 | 3.13 | 0.78 | 0.78 | 1.56 | 3.13 | 6.25 | 0.2 | 0.1 | 0.39 | 0.025 | 11.3 | –
CCON=C(C(=O)NC1C(=O)N2C(C(=O)[O-])=C(C[n+]3cccc4c3ncn4CCCN)CSC12)c1nsc(N)n1.Cl (stereo not shown) [Ex5-2] | 0.78 | 25 | 0.39 | 3.13 | 50 | 0.78 | 3.13 | 0.78 | 0.78 | 0.78 | 3.13 | 3.13 | 0.39 | 0.2 | 0.78 | 0.025 | – | –
Cl.NCCCn1cnc2c1ccc[n+]2CC1=C(C(=O)[O-])N2C(=O)C(NC(=O)C(=NOCF)c3nsc(N)n3)C2SC1 (stereo not shown) [Ex5-3] | 0.39 | 12.5 | 0.1 | 1.56 | 100 | 1.56 | 6.25 | 0.39 | 0.78 | 0.78 | 3.13 | 3.13 | 0.1 | 0.2 | 0.78 | 0.025 | 5.66 | –
CCON=C(C(=O)NC1C(=O)N2C(C(=O)[O-])=C(C[n+]3cccc4c3ncn4CCCNC)CSC12)c1nsc(N)n1.Cl (stereo not shown) [Ex6-2] | 0.78 | 25 | 0.39 | 3.13 | 50 | 1.56 | 6.25 | 0.78 | 1.56 | 1.56 | 3.13 | 3.13 | 0.39 | 0.1 | 0.78 | 0.025 | 7.92 | –
CNCCCn1cnc2c1ccc[n+]2CC1=C(C(=O)[O-])N2C(=O)C(NC(=O)C(=NOCF)c3nsc(N)n3)C2SC1.Cl (stereo not shown) [Ex6-3] | 0.78 | 12.5 | 0.2 | 1.56 | 50 | 3.13 | 6.25 | 0.39 | 0.78 | 0.78 | 6.25 | 6.25 | 0.2 | 0.2 | 0.78 | 0.025 | 6.43 | –
CN[C@H](CC(C)C)C(=O)N[C@H]1C(=O)N[C@@H](CC(N)=O)C(=O)N[C@H]2C(=O)N[C@H]3C(=O)N[C@H](C(=O)N[C@H](C(=O)O)c4cc(O)cc(O)c4-c4cc3ccc4O)[C@H](O)c3ccc(c(Cl)c3)Oc3cc2cc(c3O[C@@H]2O[C@H](CO)[C@@H](O)[C@H](O)[C@H]2O[C@H]2C[C@](C)(N)[C@H](O)[C@H](C)O2)Oc2ccc(cc2Cl)[C@H]1O [VCM, vancomycin, reference compound] | – | – | – | – | – | – | – | – | – | – | – | – | – | – | – | – | – | MIC (S.aureus SMITH; Staphylococcus aureus): 0.78 mg/L (≈ 0.538 µM); MIC (S.aureus SR14; Staphylococcus aureus, SR14): 0.78 mg/L (≈ 0.538 µM); MIC (S.aureus SR3626; Staphylococcus aureus, MRSA): 3.13 mg/L (≈ 2.16 µM); MIC (S.aureus SR3637 [1]; Staphylococcus aureus, MRSA): 3.13 mg/L (≈ 2.16 µM); MIC (S.mitis SR16376; Streptococcus mitis, SR16376): 0.39 mg/L (≈ 0.269 µM); MIC (S.pneumoniae SR16675; Streptococcus pneumoniae, SR16675): 0.2 mg/L (≈ 0.138 µM); MIC (S.pneumoniae Type 1; Streptococcus pneumoniae, TYPE1): 0.39 mg/L (≈ 0.269 µM); ED50 (S.aureus SR3637 [2]; Staphylococcus aureus, read-out: ED50): 5.66 mg/kg
